{
  "source": "patent US20120238596A1",
  "about": "“FORMULATIONS COMPRISING PALONOSETRON” (DR. REDDY'S LABORATORIES, INC., priority 2008, published 2012)",
  "origin": "cited, not measured here",
  "target": "T1, serotonin subtype 3 (5-HT3) receptor (Homo sapiens, UniProt P46098)",
  "T1 sequence (P46098 24-478)": "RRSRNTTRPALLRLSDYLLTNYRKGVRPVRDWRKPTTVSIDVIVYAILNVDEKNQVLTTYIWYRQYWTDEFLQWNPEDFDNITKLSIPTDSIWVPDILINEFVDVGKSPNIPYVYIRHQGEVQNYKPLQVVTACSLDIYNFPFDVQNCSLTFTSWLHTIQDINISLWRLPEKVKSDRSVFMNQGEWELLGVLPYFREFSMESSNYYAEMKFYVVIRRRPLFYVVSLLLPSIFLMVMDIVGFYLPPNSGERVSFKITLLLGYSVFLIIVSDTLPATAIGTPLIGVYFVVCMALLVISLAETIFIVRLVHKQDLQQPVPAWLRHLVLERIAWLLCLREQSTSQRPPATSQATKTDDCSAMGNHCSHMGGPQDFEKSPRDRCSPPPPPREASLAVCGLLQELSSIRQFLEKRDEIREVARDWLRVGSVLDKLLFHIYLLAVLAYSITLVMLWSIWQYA",
  "data": [
    {"smiles": "Cl.O=C1c2cccc3c2[C@H](CCC3)CN1[C@@H]1CN2CCC1CC2", "note": "[Palonosetron hydrochloride, (3a5)-2-[(S)-1-Azabicyclo [2.2.2]oct-3-yl]-2,3,3a,4,5,6-hexahydro-1-oxo-1H-benz [de]isoquinoline hydrochloride]", "values": [
      {"measurement": "binding affinity for 5-HT3 receptor", "result": "strong binding affinity"}
    ]}
  ]
}
